Like-named read-outs stand apart in the source and are kept apart here.
Columns and labels:
[1] = target: VvelCSP1 (Vespa velutina auraria, UniProt A0A384ZVP9); assay: Fluorescence competitive binding assay (1-NPN probe) with VvelCSP1
Method: (§1) Fluorescence competitive binding assays were employed to characterize the interactions between VvelCSPs and 13 volatiles shared between the elaiosomes of S. tuberosa and the cuticular hydrocarbons of honeybees. These tests were performed in 1 cm path length quartz cuvettes with an excitation wavelength of 337 nm and emission wavelength scanning from 400–450 nm. The volatiles and the fluorescent probe 1-NPN (1-N-phenylnaphthylamine), listed in Supplementary Table S2, were dissolved in methanol to prepare 100 mM stock solutions, which were then diluted to 1 mM working solutions [25]. To remove any potential endogenous ligands, the purified proteins were delipidated by three washes with an equal volume of dichloromethane (1:1 v/v). Each wash involved a 10-min incubation, and the process was followed by evaporation of the residual solvent under a gentle stream of nitrogen. Purified CSPs were resuspended in 20 mM Tris-HCl buffer (pH 7.5) to a final concentration of 2 μM. Binding parameters for CSP-NPN were determined by titration: 2 mL of CSP solution (2 μM) was titrated with 1-NPN (final concentrations: 2−24 μM). Maximum fluorescence intensity was recorded, and the dissociation constant was calculated. […] After incubation in the dark for 2 min, fluorescence quenching was measured. Half-maximal inhibitory concentration (IC50) values for volatiles were calculated from the competition curves, and their binding constants (Ki) were subsequently derived. The presented data, including IC50 and Ki values, originate from a single experiment under uniform conditions to ensure comparability (Supplementary Table S3).

[2] = target: VvelCSP4; assay: Fluorescence competitive binding assay (1-NPN probe) with VvelCSP4; design: species or system Vespa velutina auraria
Method: as §1

[3] = VvelCSP4 2 μM, 1-NPN 1 μM, Tris-HCl pH 7.5, single experiment, read-out: IC50 (ligand concentration displacing 50% of the fluorescence intensity of the CSPs/NPN complex)
[4] = VvelCSP4, derived from IC50, read-out: Ki (dissociation constant)
[5] = VvelCSP4, read-out: IC50 (μM), no binding symbol
[6] = VvelCSP4, read-out: Ki (μM), no binding symbol

VvelCSP1, sequence (A0A384ZVP9 entry or part of it): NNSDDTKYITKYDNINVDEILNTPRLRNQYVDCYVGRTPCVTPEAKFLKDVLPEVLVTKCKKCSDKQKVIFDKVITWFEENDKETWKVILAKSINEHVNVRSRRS

Row | Structure (SMILES) | Raw fluorescence intensity ([1]; VvelCSP1, chemical 0.5 μM) | Raw fluorescence intensity ([1]; VvelCSP1, chemical 1 μM) | Raw fluorescence intensity ([1]; VvelCSP1, chemical 2 μM) | Raw fluorescence intensity ([1]; VvelCSP1, chemical 4 μM) | Raw fluorescence intensity ([1]; VvelCSP1, chemical 6 μM) | Raw fluorescence intensity ([1]; VvelCSP1, chemical 8 μM) | Raw fluorescence intensity ([1]; VvelCSP1, chemical 12 μM) | Raw fluorescence intensity ([1]; VvelCSP1, chemical 16 μM) | IC50 [2, 3] [µM] | Raw fluorescence intensity ([2]; VvelCSP4, chemical 0.5 μM) | Raw fluorescence intensity ([2]; VvelCSP4, chemical 1 μM) | Raw fluorescence intensity ([2]; VvelCSP4, chemical 2 μM) | Raw fluorescence intensity ([2]; VvelCSP4, chemical 4 μM) | Raw fluorescence intensity ([2]; VvelCSP4, chemical 6 μM) | Raw fluorescence intensity ([2]; VvelCSP4, chemical 8 μM) | Raw fluorescence intensity ([2]; VvelCSP4, chemical 12 μM) | Raw fluorescence intensity ([2]; VvelCSP4, chemical 16 μM) | Ki [2, 4] [µM] | IC50 [2, 5] [µM] | Ki [2, 6] [µM]
1 | CCCCCCCCCCCCCCCCCCCCCCCC [Tetracosane] | 225.09 | 200.88 | 176.79 | 157.66 | 144.05 | 131.64 | 122.98 | 117.42 | 18.9 | 216.50 | 198.86 | 178.28 | 160.59 | 153.54 | 132.96 | 126.27 | 122.27 | 14.2 |  | 
2 | CCCCCCCCCCCCCCCCCCCCCCCCCCCCCC [Triacontane] | 211.63 | 196.09 | 180.51 | 166.41 | 152.93 | 143.85 | 139.39 | 137.14 |  | 216.07 | 200.62 | 183.85 | 171.56 | 162.42 | 148.29 | 139.28 | 135.24 |  | > 24 | > 18
3 | CCCCCCCCCCCCCCCCCCCCCCCCCCCC [Octacosane] | 200.77 | 192.40 | 162.06 | 146.64 | 135.22 | 131.33 | 127.20 | 124.62 |  | 227.35 | 213.99 | 194.19 | 182.58 | 174.55 | 162.14 | 156.02 | 154.11 |  | > 24 | > 18
4 | CCCCCCCCCCCCCCCCCCCCC [Heneicosane] | 190.87 | 168.28 | 152.31 | 138.38 | 134.83 | 130.66 | 127.58 | 125.86 | 19.8 | 252.45 | 226.44 | 209.89 | 178.34 | 161.57 | 149.85 | 143.60 | 140.19 | 14.7 |  | 
5 | CCCCCCCCCCCCCCCCCCCCCCCCCC [Hexacosane] | 189.29 | 171.76 | 135.79 | 114.55 | 103.35 | 99.94 | 93.92 | 89.96 |  | 213.35 | 194.71 | 177.42 | 169.19 | 147.61 | 141.30 | 136.25 | 133.13 |  | > 24 | > 18

From PMC12652730, “The Chemoreceptive Molecular Mechanism Underlying CSP-Mediated Recognition of Seed Elaiosome from Stemona tuberosa by Hornets” (Genes, 2025)
